Data set [1] is described as follows: Oral administration of topotecan in capsules (control, microgel, microgel + L92). In kind it is in vivo, rats. The method, then:
(§1) About 30 mg of topotecan were weighed and mixed with 100 mg of the microgel. The mixture was dissolved in 5 mL of 70% ethanol and incubated for 16 hours at room temperature. Then, the half volume of solvent was evaporated in a stream of nitrogen. About 10 mL of 3% acetic acid were added to the mixture. The final mixture was lyophilized until dryness and loaded into the gelatin capsules.
About 30 mg of topotecan were weighed and loaded in gelatin capsules (3.75 mg/capsule).
The control and formulated topotecan in capsules were orally administered in normal rats at the dose of 15 mg/kg. The blood sample collection, extraction and HPLC analysis were the same as described in example 8.
as §1, with “microgel EGDMA and 30 mg of L92.” for “the microgel.”, “capsules. The topotecan formulation in capsules was orally administered in normal rats at the dose of 15 mg/kg. The blood sample collection, the extraction and HPLC analysis procedures were the same as in example 8.” for “capsules.”

Data set [2] is described as follows: Oral bioavailability of Pluronic P85 formulated and unformulated topotecan (gavage). In kind it is in vivo. The note with it: normal rats, oral gavage of solution, 15 mg/kg, plasma. Here is the method: About 15 mg of topotecan were weighed and dissolved in 5 mL of tap water for control, and about 15 mg of topotecan were dissolved in 5 mL of 1% P85 solution in tap water for formulation;
Both topotecan dosing solutions were orally administered by gavage in normal rats at a dose of 15 mg/kg. Three animals were used per each group.
(§2) After various time intervals (15, 30 min, 1, 3, 6, and 10 hrs) post-injection, the blood samples were collected.
The rats were anesthetized by general inhalation of Isoflurane (Bimeta-MTC, Animal Health Inc. Cambridge, ON, Canada).
The plasma sample collection, extraction and HPLC analysis were carried out with the same matter as is described in example 8.
The topotecan lactone and topotecan carboxylate concentrations were calculated from the area under the peak (AUP) by using a calibration curve. The areas under the curves (AUC) were calculated by trapezoidal rule.

Data set [3] is described as follows: Plasma pharmacokinetics of topotecan upon i.v. administration. The data set is classed as in vivo. The note with it: normal rats, dose of 15 mg/mL. The method, then: About 28 mg of topotecan were weighed and dissolved in 7 mL of isotonic solution. Topotecan was i.v. administered in normal rats at a dose of […].
as §2
The blood samples were collected from the jugular vein with the tube heparinized and kept immediately in ice for 5 to 10 min. Blood was immediately centrifuged, and plasma was separated. The plasma samples were immediately frozen in dry ice and stored at −80° C. until further use.
The aliquots (100 μL) of plasma samples were extracted with 400 μL of cold methanol. The supernatant was separated by centrifugation at 10000 RPM for 10 minutes and kept at −80° C. before HPLC analysis. The HPLC conditions were the following:
(§3) C18 reversed phase column 250×4.6 mm, Phenomenex C18 (2) Luna, 5 μm, column temperature 40° C., flow rate 1 mL/min, injection volume 20 μL, fluorescence detection at wavelengths λexcitation=381 nm, λemission=525 nm, mobile phase 94% of 2% triethylamine acetate pH 5.5/6% acetonitrile, run time 7 min
The topotecan lactone and topotecan carboxilate concentrations were calculated from the area under the peak (AUP) by using a calibration curve. The areas under the curves (AUC) were calculated by trapezoidal rule.

The nature of data set [4]: Stability of topotecan lactone in Pluronic P85 formulation (HPLC). In kind it is physicochemical. As to conditions: 37° C., 0.3 mg/mL drug in PBS. The method, then: The formulation was prepared by mixing the stock solution containing 6 mg/mL of topotecan in 0.1% aqueous acetic acid with the 2.05% P85 solutions in PBS 1:20 (v/v), to obtain final compositions containing 0.3 mg/mL drug in 1% P85. The control formulation was prepared by simple dilution of topotecan stock solution with PBS 1:20 (v/v). The initial time of incubation (O hour) is the time of mixing of the respective stock solutions. The samples were incubated at 37° C. in thermostat. After various time intervals (1, 2, 3, 6, and 10 hrs) […], a sample of formulation was taken, diluted 1000 times with the HPLC mobile phase, and injected into HPLC. The HPLC conditions were following:
as §3

A short description of data set [5]: Solubility of topotecan in formulations with Pluronic P85. The note with it: thermodynamic from solid, read-out: Topotecan concentration (solubility). The data set is classed as physicochemical. Here is the method:
Calibration. Fluorescence of 0.300 mL samples of topotecan solutions in methanol containing between 0.00006 and 0.001 mg/mL, in triplicates on Helma Quarz plate, was measured using Bio-Tek FL600 fluorescence plate reader with excitation filter wavelength/bandwidth 360/40 nm and emission filter 530/25 nm, sensitivity 70. The average fluorescence was fitted to a linear equation and gave:
where C=topotecan concentration [mg/mL].
Solubility. 1 mg topotecan samples, in triplicates, and 1 mL of the respective buffer or carrier solution, were incubated at room temperature with shaking for 1 hour. The samples were then filtered through Acrodisc CR, PTFE Syringe filter, 4 mm diameter, 0.45 μm pore size Gelman part No. 4472. The filtrate was diluted 100 times with methanol, and the final concentration of topotecan was determined by fluorescence measurement using the above-described calibration.

Data set [6] can be described thus: Partitioning of topotecan into Pluronic F127 micelles (fluorescence). The data set is classed as physicochemical. The note with it: Pluronic F127 micelles vs aqueous phase, carrier 0.003% to 10%, topotecan 0.010 mM, 2 hrs at 37° C. From the text: Partitioning coefficient P describes the tendency of molecules of topotecan to stay inside micelles formed by the carrier: P=[x]m/[x]w, where [x]m is the actual concentration of topotecan inside micelles, [x]w is the actual concentration of topotecan in aqueous phase. The carrier investigated in this example is pluronic F127 (BASF). Partitioning coefficient was estimated using the fluorescence dependence on the concentration of the carrier (Kabanov A. et al. (1995), Macromolecules 28, 2303-2314), by fitting the measured fluorescence of topotecan to the equation:
(Imax−I0)/(−I0)−1=1/(θP)−1/P
θ=0.01v([carrier]−CMCcarrier), volume portion of the micellar phase
CMCcarrier=0.02%—critical micelle concentration for Pluronic 127
v—partial specific volume of micelles, approximately v=0.8
[…]. The plate was dried in vacuum. Solutions of the carrier were applied to wells, 300 microliter to each well. The concentration of carrier in solutions varied from 0.003% to 10%. The final concentration of topotecan was 0.010 mM. The plate was incubated 2 hrs at 37° C., and the fluorescence of the solution (excitation 360 nm, emission 530 nm) was measured using plate reader FL600 (BioTek).

Where [7] appears, read: normal rats, oral gelatin capsules, 15 mg/kg, plasma.

The values that follow come from patent US20040258754A1, “Compositions for oral administration of camptothecin and its analogs” (priority 2003, published 2004).

Values after ≈ are worked out from the molar mass of the structure shown. Read-outs that look alike come from different tables or passages of the source.

With `CC[C@@]1(O)C(=O)OCc2c1cc1n(c2=O)Cc2cc3c(CN(C)C)c(O)ccc3nc2-1` [Topotecan, topotecan], the “AUC Ratio Oral Vs I.V.” value in data set [1] (Lac/Car AUC ratio, oral capsules 15 mg/kg vs i.v., rats) was found to be 2.0. The “Cmax Ratio Oral Vs I.V.” value in data set [1] (Lac/Car Cmax ratio, oral capsules 15 mg/kg vs i.v., rats) turned out to be 2.0. Besides, the “Ratio AUC0-10 h Lac/Car” value is reported as 0.6 in data set [1] (setting [7]), 1.2 in data set [2] and 0.3 in data set [3]. Moreover, the “Ratio Cmax Lac/Car” value stood at 0.8 in data set [1] (setting [7]), 1.2 in data set [2] and 0.4 in data set [3]. Besides, the AUC(0-t) in data set [1] (rat, normal rats, oral gelatin capsules, 15 mg/kg, plasma, read-out: AUC0-10 h, topotecan Lactone) came to 52.8 ng·h/mL; in data set [2] (rat, read-out: AUC0-10 h, topotecan Lactone), 80.5 ng·h/mL; in data set [3] (rat, iv, read-out: AUC0-10 h, topotecan Lactone), 454 ng·h/mL. Also, the Cmax came to 9.8 ng/mL in data set [1] (rat, normal rats, oral gelatin capsules, 15 mg/kg, plasma, read-out: Cmax, topotecan Lactone); 20.3 ng/mL in data set [2] (rat, read-out: Cmax, topotecan Lactone); 321 ng/mL in data set [3] (rat, iv, read-out: Cmax, topotecan Lactone). The topotecan lactone stability is reported as 100.0 % of 0 h in data set [4] (0 hour); 76.0 % of 0 h in data set [4] (1 hour); 56.4 % of 0 h in data set [4] (2 hours); 49.7 % of 0 h in data set [4] (3 hours); 45.9 % of 0 h in data set [4] (6 hours); 44.8 % of 0 h in data set [4] (10 hours). The solubility at 1 h turned out to be 95 ± 5 µg/mL (≈ 225 µM) in data set [5] (1% Pluronic P85 in PBS, aqueous with cosolvent or surfactant or cyclodextrin, P85 1% in PBS pH 7.2, room temperature); 105 ± 5 µg/mL (≈ 249 µM) in data set [5] (3% Pluronic P85 in PBS, aqueous with cosolvent or surfactant or cyclodextrin, P85 3% in PBS pH 7.2, room temperature); 62 ± 5 µg/mL (≈ 147 µM) in data set [5] (aqueous buffer, PBS pH 7.2, room temperature). The “partitioning coefficient P=[x]m/[x]w” value in data set [6] is reported as “about 1”.

What is called Cmax is the peak of the concentration-time curve.
